Here are results for six compounds from BindingDB's records for doi:10.1021/jm050004k (Karo Bio, 2005).

The structures appear in SMILES notation.

For assay [1], the target named is T1, Thyroid hormone receptor alpha (Homo sapiens, UniProt P10827).
T1 sequence (P10827 whole entry): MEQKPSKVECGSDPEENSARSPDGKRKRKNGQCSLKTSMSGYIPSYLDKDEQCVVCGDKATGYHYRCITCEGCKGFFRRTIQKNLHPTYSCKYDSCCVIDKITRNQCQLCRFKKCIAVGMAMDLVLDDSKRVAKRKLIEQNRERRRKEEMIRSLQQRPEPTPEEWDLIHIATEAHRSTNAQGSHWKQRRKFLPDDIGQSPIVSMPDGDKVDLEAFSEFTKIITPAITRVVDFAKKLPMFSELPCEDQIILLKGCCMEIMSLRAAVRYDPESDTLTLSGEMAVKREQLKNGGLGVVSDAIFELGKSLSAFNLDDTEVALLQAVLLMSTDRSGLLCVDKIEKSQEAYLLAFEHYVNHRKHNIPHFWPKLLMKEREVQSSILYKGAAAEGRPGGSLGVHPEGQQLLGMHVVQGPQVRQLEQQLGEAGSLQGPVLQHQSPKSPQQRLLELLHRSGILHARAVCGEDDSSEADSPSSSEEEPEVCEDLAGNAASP
The assay can be described thus: TRalpha-Binding Assay and Thyroid Response Element (TRAFalpha1) Reporter Assay. Conditions: pH 7; 4 °C. The text has this: IIC50 is the concentration of each compound required to inhibit 50% binding of 125I-T3 to hTRalpha. EC50 is the concentration of compound required to inhibit 50% of T3-induced TRalpha-activation in CHOK1 cells stably transfected with hTRalpha using alkaline phosphatase reporter assay.
In general terms: In a reporter assay the amount or activity of a reporter protein is the signal.

Assay [2] concerns the target T2, Thyroid hormone receptor beta (Homo sapiens, UniProt P10828).
T2 sequence (P10828 whole entry): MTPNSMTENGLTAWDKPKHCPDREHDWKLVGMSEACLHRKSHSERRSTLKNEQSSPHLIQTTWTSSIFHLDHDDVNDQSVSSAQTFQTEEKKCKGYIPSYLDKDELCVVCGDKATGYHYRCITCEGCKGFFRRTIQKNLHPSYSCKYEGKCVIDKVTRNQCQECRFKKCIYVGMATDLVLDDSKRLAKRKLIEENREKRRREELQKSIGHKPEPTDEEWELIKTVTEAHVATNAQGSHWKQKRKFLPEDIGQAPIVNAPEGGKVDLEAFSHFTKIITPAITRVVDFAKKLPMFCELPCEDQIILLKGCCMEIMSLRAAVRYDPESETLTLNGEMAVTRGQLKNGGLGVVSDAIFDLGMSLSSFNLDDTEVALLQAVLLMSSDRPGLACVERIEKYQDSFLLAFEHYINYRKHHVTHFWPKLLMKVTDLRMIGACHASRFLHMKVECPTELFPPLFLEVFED
The assay can be described thus: TRbeta-Binding Assay and Thyroid Response Element (TRAFbeta1) Reporter Assay. Conditions: pH 7; 4 °C. The source says: IC50 is the concentration of each compound required to inhibit 50% binding of 125I-T3 to hTRbeta. EC50 is the concentration of compound required to inhibit 50% of T3-induced TRbeta-activation in CHOK1 cells stably transfected with hTRbeta using alkaline phosphatase reporter assay.

On to `CCC(CC)COc1c(Br)cc(CC(=O)O)cc1Br` [2-[3,5-dibromo-4-(2-ethylbutoxy)phenyl]acetic acid], for which the EC50 (in general, the concentration giving half of the maximal effect) in assay [1] stood at 0.82 nM; in assay [2], 0.7 nM.
As to `O=C(O)CCc1cc(Br)c(OCC2CCCCC2)c(Br)c1` [JMC496635 Compound 9], the EC50 is 0.53 nM in assay [1] and 0.12 nM in assay [2].
`CCCCCCOc1c(Br)cc(CCC(=O)O)cc1Br` [3-[3,5-dibromo-4-(hexyloxy)phenyl]propanoic acid]: the results for the EC50 in assay [1] and in assay [2] were 0.6 nM and 1 nM, respectively.
With `CC(C)CCOc1c(Br)cc(CC(=O)O)cc1Br` [2-[3,5-dibromo-4-(3-methylbutoxy)phenyl]acetic acid], the IC50 (usually the concentration at which inhibition is half-maximal) in assay [2] was found to be 1800 nM. This lies in the single-digit micromolar range.
Consider `CCCCCCOc1c(Br)cc(CC(=O)O)cc1Br` [2-[3,5-dibromo-4-(hexyloxy)phenyl]acetic acid], for which the values for the EC50 in assay [1] and in assay [2] were 0.7 nM and 0.8 nM, respectively.
As for `O=C(O)Cc1cc(Br)c(OCC2CCCCC2)c(Br)c1` [2-[3,5-dibromo-4-(cyclohexylmethoxy)phenyl]acetic acid], the figures for the EC50 in assay [1] and in assay [2] were 0.42 nM and 0.52 nM, respectively.
